US12613246B2, “Fluorescent probe and protein labeling method” (SHANGHAI GLORY CAPITAL MANAGEMENT LTD., priority 2018, dated 2026)

What was measured:
[1] = Fluorescence emission spectra of probes in glycerol and methanol (viscosity response); type: physicochemical; conditions: maximum excitation wavelength of each probe; for Fluorescence ratio in glycerol methanol: 1×10^−5 M; for Emission wavelength: medium not given
Excerpt: Respectively dissolve Probe 1-32 and Reference Probes BG-CCVJ and BG-Gly-CCVJ in dimethyl sulfoxide so as to prepare a mother liquid with a concentration of 1×10^−2M; add the mother liquid to glycerol and methanol respectively and mix them well to prepare a solution with a concentration of 1×10^−5 M. Based on different probes, the fluorescence emission spectrum of each probe are detected under the same conditions with maximum excitation wavelength of each probe.
The probes are sensitive to the change of viscosity and have viscosity response.

[2] = Fluorescence of free probe before reaction with the protein tag; type: physicochemical
Experimental: (§1) Mix the probe with corresponding protein tag to obtain the mixed sample, wherein the final concentration of probe in the mixed sample is 5 μM, and the final concentration of protein tags is 10 μM; hatch the mixed sample at 37° C. for 1 h, and detect its fluorescence intensity change by using the fluorescence spectrophotometer.
(§2) According to the free probe quantum yield shown in Table 1, the fluorescence of the probes of and reference probes are extremely low before the reaction with the protein tag, and is close to the background fluorescence level of PBS buffer solution. […] However, according to the quantum yield of the binding protein tag, the fluorescence signal enhancement can be detected in the corresponding excitation emission channel after the probe reacts with the protein tag with hundreds to one thousand fold fluorescence activation times and very high brightness; the reference probes also can activate fluorescence, but the fluorescence quantum yield and brightness after activation are quite low.

[3] = system: SNAP protein tag; assay: Fluorescence activation after mixing probe with corresponding protein tag (SNAP); type: biochemical; conditions: probe 5 μM, protein tag 10 μM, 37° C., 1 h
Experimental: as §1, §2

[4] = system: CLIP protein tag; assay: Fluorescence activation after mixing probe with corresponding protein tag (CLIP); type: biochemical; conditions: probe 5 μM, protein tag 10 μM, 37° C., 1 h
Experimental: as §1, §2

Compound | Fluorescence ratio in glycerol methanol [1] | Emission wavelength [1] [nm] | Quantum yield of free probe [2] | Fluorescence activation multiple [3] | Quantum yield of binding protein tags [3] | Fluorescence activation multiple [4] | Quantum yield of binding protein tags [4]
CN(CCOC(=O)NCc1ccc(COc2nc(N)nc3[nH]cnc23)cc1)c1ccc2c(c1)C(C)(C)c1cc(/C=C(\C#N)C(=O)O)sc1-2 [Probe 23] | 512 | 643 | <0.001 | 433 | 0.33 |  | 
CN(CCOC(=O)NCc1ccc(COc2nc(N)nc3[nH]cnc23)cc1)c1ccc2c(c1)C(C)(C)C(/C=C(\C#N)c1nc3ccccc3s1)=N2 [Probe 31] | 573 | 703 | <0.001 | 445 | 0.47 |  | 
COCCNC(=O)/C(C#N)=C/c1cc2c(s1)-c1ccc(N(C)CCOC(=O)NCc3ccc(COc4nc(N)nc5[nH]cnc45)cc3)cc1C2(C)C [Probe 19] | 996 | 640 | <0.001 | 670 | 0.51 |  | 
CN(CCOC(=O)NCc1ccc(COc2nc(N)nc3[nH]cnc23)cc1)c1ccc(-c2ccc(/C=C(\C#N)c3nc4ccccc4o3)o2)cc1 [Probe 7] | 814 | 666 | <0.001 | 701 | 0.45 |  | 
CN(CCOC(=O)NCc1ccc(COc2nccc(N)n2)cc1)c1ccc(-c2ccc(/C=C(\C#N)C(=O)OC(C)(C)C)o2)cc1 [Probe 8] | 574 | 630 | <0.001 |  |  | 555 | 0.40
CN(CCOC(=O)NCc1ccc(COc2nc(N)nc3[nH]cnc23)cc1)c1ccc2c(c1)C(C)(C)c1cc(/C=C(\C#N)C(=O)OC(C)(C)C)oc1-2 [Probe 28] | 1274 | 651 | <0.001 | 857 | 0.67 |  | 
CN(CCOC(=O)NCc1ccc(COc2nccc(N)n2)cc1)c1ccc(-c2ccc(/C=C(\C#N)C(=O)OC(C)(C)C)o2)o1 [Probe 15] | 301 | 651 | 0.0012 |  |  | 265 | 0.35
CN(CCOC(=O)NCc1ccc(COc2nc(N)nc3[nH]cnc23)cc1)c1ccc2nc(/C=C(\C#N)c3nc4ccccc4o3)ccc2c1 [Probe 2] | 790 | 630 | <0.001 | 556 | 0.44 |  | 
CN(CCOC(=O)NCc1ccc(COc2cc(Cl)nc(N)n2)cc1)c1ccc2nc(/C=C(\C#N)C(=O)OC(C)(C)C)ccc2c1 [Probe 4] | 601 | 550 | <0.001 | 567 | 0.39 |  | 
COCCNC(=S)/C(C#N)=C/c1cc2c(s1)-c1ccc(N(C)CCOC(=O)NCc3ccc(COc4nc(N)nc5[nH]cnc45)cc3)cc1C2(C)C [Probe 20] | 1123 | 665 | <0.001 | 910 | 0.44 |  | 
CN(CCOC(=O)NCc1ccc(COc2nc(N)nc3[nH]cnc23)cc1)c1ccc2c(c1)C(C)(C)C(/C=C(\C#N)C(=O)OC(C)(C)C)=N2 [Probe 30] | 412 | 675 | <0.001 | 503 | 0.41 |  | 
CN(CCOC(=O)NCc1ccc(COc2cc(Cl)nc(N)n2)cc1)c1ccc2c(c1)C(C)(C)c1cc(/C=C(\C#N)C(=O)OC(C)(C)C)sc1-2 [Probe 27] | 493 | 645 | <0.001 | 557 | 0.41 |  | 
CN(CCOC(=O)NCc1ccc(COc2nc(N)nc3[nH]cnc23)cc1)c1ccc(-c2ccc(/C=C(\C#N)c3nc4ccccc4s3)o2)o1 [Probe 14] | 402 | 725 | 0.001 | 498 | 0.35 |  | 
CN(CCOC(=O)NCc1ccc(COc2nccc(N)n2)cc1)c1ccc2c(c1)C(C)(C)C(/C=C(\C#N)C(=O)OC(C)(C)C)=N2 [Probe 32] | 553 | 675 | <0.001 | 421 | 0.41 |  | 
CN(CCOC(=O)NCc1ccc(COc2nc(N)nc3[nH]cnc23)cc1)c1ccc(-c2ccc(/C=C(\C#N)C(=O)OC(C)(C)C)o2)cc1 [Probe 5] | 821 | 615 | <0.001 | 669 | 0.44 |  | 
N#C/C(=C\c1cc2c3c(c1)CCCN3CCC2)C(=O)NCc1ccc(COc2nc(N)nc3[nH]cnc23)cc1 [Reference probe BG-CCVJ, reference compound] | 260 | 501 | <0.001 | 170 | 0.02 |  | 
COC(=S)/C(C#N)=C/c1cc2c(s1)-c1ccc(N(C)CCOC(=O)NCc3ccc(COc4nc(N)nc5[nH]cnc45)cc3)cc1C2(C)C [Probe 21] | 542 | 680 | <0.001 | 451 | 0.39 |  | 
N#C/C(=C\c1cc2c3c(c1)CCCN3CCC2)C(=O)NCC(=O)NCc1ccc(COc2nc(N)nc3[nH]cnc23)cc1 [Reference probe BG-Gly-CCVJ, reference compound] | 260 |  | <0.001 | 60 |  |  | 
CN(CCOC(=O)NCc1ccc(COc2nc(N)nc3[nH]cnc23)cc1)c1ccc2nc(/C=C(\C#N)C(=O)OC(C)(C)C)ccc2c1 [Probe 1] | 562 | 550 | <0.001 | 490 | 0.41 |  | 
COCCNC(=O)/C(C#N)=C/c1ccc(-c2ccc(N(C)CCOC(=O)NCc3ccc(COc4nc(N)nc5[nH]cnc45)cc3)cc2)o1 [Probe 6] | 851 | 627 | <0.001 | 745 | 0.41 |  | 
CN(CCOC(=O)NCc1ccc(COc2nc(N)nc3[nH]cnc23)cc1)c1ccc(-c2ccc(/C=C(\C#N)C(=O)OC(C)(C)C)o2)o1 [Probe 13] | 311 | 650 | 0.0012 | 359 | 0.37 |  | 
